Data: publication PMC7508628, “Targeting the Respiratory Syncytial Virus N^0-P Complex with Constrained α-Helical Peptides in Cells and Mice” (Antimicrobial Agents and Chemotherapy, 2020)
Where a SMILES comes first, the peptide text is derived from it. Bridges are numbered along the chain shown (N, C = ends). [ ]: non-standard residue; d: D form. R8 = C=CCCCCCC[C@@](C)(N)C(=O)O; R5 = C=CCCC[C@@](C)(N)C(=O)O; S5 = C=CCCC[C@](C)(N)C(=O)O

How the values were obtained:
[1] = Circular dichroism spectroscopy, α-helical content; assay type: physicochemical; conditions: CD, 10 mM phosphate buffer pH 7.5, 50 μM peptide, 25°C, calculated from ellipticity at 222 nm; average of three measurements
Method in brief: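 Peptides at 50 μM in 10 mM phosphate, pH 7.5, scanned 180–260 nm at 25 °C in a 0.5-mm cell, three scans averaged and buffer-subtracted. Percent helicity derived from per-residue molar ellipticity at 222 nm using a length-corrected 40,000 maximum.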

rHRSV-mCherry = conditions: read-out: EC50 (half-maximal response inhibitory concentration), inhibition of RSV infection; HEp-2 cells, MOI 0.2, peptides added after 2 h infection, mCherry fluorescence at 48 h postinfection; duplicates
BSRT7/5 cells = experiment: Viability of BSRT7/5 cells transfected with the minigenome; conditions: 25 μM peptide
From the text: BSRT7/5 cells were transfected with plasmids pP, pN, pM2-1, pL, and pM/Luc, together with pRSV-β-Gal for transfection standardization. […] Error bars are standard deviations from duplicates. Data are representative of those from two independent experiments.
Briefly, the dicistronic RSV minigenome pM/Luc was cotransfected into BSRT7/5 cells expressing T7 RNA polymerase, together with plasmids pN, pP, pL, and pM2-1, resulting in the replication and transcription of the minigenome.

HEp-2 cells = experiment: HEp-2 cell viability (CellTiter-Glo luminescent cell viability assay); conditions: peptide alone at 50 μM; duplicates
Method: (B) HEp-2 cell viability upon treatment with peptides alone at peptide concentrations of 50, 25, and 12.5 μM. Error bars are standard deviations from duplicates. Data are representative of those from two independent experiments.
Cytotoxicity assays were done with the CellTiter-Glo luminescent cell viability assay (Promega). Each experiment was performed in duplicate and repeated at least twice.

RSV = conditions: monthly injection during the peak season, at-risk infants; cited from earlier work
From the text: Respiratory syncytial virus (RSV) is very contagious and represents the main cause of severe acute respiratory tract illness in young children worldwide. […] A recent study performed by Pneumonia Etiology Research for Child Health ...

BALB/c mice = experiment: In vivo toxicity assessment in uninfected BALB/c mice
rHRSV-Luc = experiment: Mouse RSV infection model (rHRSV-Luc, bioluminescence, lung histology)
[2] = 2 dpi, one i.n. treatment 50 μl at 215 μM, 1 × 10^5 PFU rHRSV-Luc, n = 5
[3] = 4 dpi, i.n. treatment at day 0 and 2 dpi, n = 5, Mann-Whitney test

Row | Molecule | % helicity [1] [%] | EC50 (rHRSV-mCherry) [µM] | Cell mortality of minigenome-transfected BSRT7/5 cells (BSRT7/5 cells) [%] | Toxicity for uninfected HEp-2 cells (cell viability) (HEp-2 cells) | Efficacy of prophylactic treatment (RSV) | Animals with focal lesions of the pulmonary parenchyma with infiltration by neutrophils (histology) (BALB/c mice; BALB/c mice n = 5, i.n. 50 μl at 215 μM at days 0 and 2, day 4, HES staining) | Macroscopic lung examination (BALB/c mice; BALB/c mice n = 5, i.n. 50 μl at 215 μM at days 0 and 2, lungs collected at day 4) | Body weight monitoring, signs of toxicity (BALB/c mice; BALB/c mice n = 5, i.n. 50 μl at 215 μM in PBS at days 0 and 2, days 0 to 4) | Reduction in the level of RSV replication in the noses versus untreated mice (rHRSV-Luc; [2]) [fold] | Whole luminescence signal versus untreated infected mice (rHRSV-Luc; [2]) | Intensity of interstitial pneumonia (lung histology) (rHRSV-Luc; 4 dpi, HES staining, versus RSV-infected PBS mice) | Animals with vascular and bronchial lesions (lung histology) (rHRSV-Luc; 4 dpi, HES staining, all 5 untreated infected animals showed lesions) | Amount of bioluminescence versus untreated control group (rHRSV-Luc; [3]) | Bioluminescence in the lungs versus untreated RSV-infected mice (rHRSV-Luc; [3]) | Body weight of RSV-infected treated animals (rHRSV-Luc; daily monitoring, i.n. treatment at day 0 and 2 dpi, n = 5)
1 | CC[C@H](C)[C@H](NC(=O)[C@]1(C)CCCC=CCCCCCC[C@@](C)(NC(=O)[C@H](CCC(=O)O)NC(=O)[C@H](CC(N)=O)NC(=O)[C@H](C)NC(=O)[C@]2(C)CCCC=CCCC[C@@](C)(NC(=O)[C@H](Cc3ccccc3)NC(=O)[C@H](CCC(=O)O)NC(C)=O)C(=O)NCC(=O)N[C@@H](CCCCN)C(=O)N2)C(=O)N[C@@H](C)C(=O)N[C@@H]([C@@H](C)O)C(=O)N[C@@H](CCCCN)C(=O)N[C@@H](Cc2ccccc2)C(=O)N[C@@H](CC(C)C)C(=O)N[C@@H](CCC(=O)O)C(=O)N1)C(=O)N[C@@H](CCCCN)C(=O)NCC(=O)N[C@@H](CCCCN)C(=O)N[C@@H](Cc1ccccc1)C(=O)N[C@@H](C)C(=O)N[C@@H](CO)C(N)=O [5d] (Ac-EF[R5]GK[S5]ANE[R8]ATKFLE[S5]IKGKFAS-NH2; staple 3-6, 10-17) | 75.7 | 6 ± 4.2 | 40 | some toxicity |  |  |  |  |  |  |  |  |  |  | 
2 | palivizumab: monoclonal antibody administered monthly as an injectable for RSV prophylaxis |  |  |  |  | approximately 50% |  |  |  |  |  |  |  |  |  | 
3 | CC[C@H](C)[C@H](NC(=O)[C@]1(C)CCCC=CCCCCCC[C@@](C)(NC(=O)[C@H](CCC(=O)O)NC(=O)[C@H](CC(N)=O)NC(=O)[C@H](C)NC(=O)[C@]2(C)CCCC=CCCC[C@@](C)(NC(=O)[C@H](Cc3ccccc3)NC(=O)[C@H](CCC(=O)O)NC(C)=O)C(=O)NCC(=O)N[C@@H](CCC(=O)O)C(=O)N2)C(=O)N[C@@H](C)C(=O)N[C@@H]([C@@H](C)O)C(=O)N[C@@H](CCCCN)C(=O)N[C@@H](Cc2ccccc2)C(=O)N[C@@H](CC(C)C)C(=O)N[C@@H](CCC(=O)O)C(=O)N1)C(=O)N[C@@H](CCCCN)C(=O)N[C@@H](CCCCN)C(=O)N[C@@H](CCCCN)C(=O)N[C@@H](Cc1ccccc1)C(=O)N[C@@H](C)C(=O)N[C@@H](CO)C(N)=O [5a] (Ac-EF[R5]GE[S5]ANE[R8]ATKFLE[S5]IKKKFAS-NH2; staple 3-6, 10-17) | >100 | 18.4 ± 9.3 |  | no toxicity |  | 3 of the 5 | no macroscopic sign of toxicity | did not reveal any signs of toxicity | 2 | no significant difference | decreased | 2 out of 5 | significant reduction | significantly reduced | statistically nonsignificant loss of weight
